# Experiment: Human HepG2 cell viability assay in 384 well format
# Format: toxicity, cell-based
# Parameters: dose 125 nL, time 70.5 hour; cytotoxicity at 70.5 h: concentration not given beside the values
# Conditions: HepG2 cells, read-out: Inhibition
row,SMILES,cytotoxicity at 70.5 h
1,CN(C)c1cc(CNC(=O)c2ccccc2Cl)ccn1,1.6%
2,CCOc1ncccc1NC(=O)C1CCS(=O)(=O)C1 (stereo not drawn),0.736%
3,CC(Cn1ccnc1)NC(=O)N(C)Cc1ccc2c(c1)OCCO2 (stereo not drawn),26.7%
4,CN1C(=O)Cc2cc(-c3csc(CCN4CCOC4=O)n3)ccc21,6.81%
5,CC(Cn1ccnc1)NC(=O)Cc1ccc2c(c1)OCCO2 (stereo not drawn),-0.766%
6,COc1ccc(CC(=O)NC2CCN(CC(F)F)CC2)cc1OC,0.793%
7,O=C(NCc1cc[nH]n1)NCC(O)c1ccc(F)c(F)c1 (stereo not drawn),1.18%
8,CC(c1cc(F)ccc1F)N1CCN(Cc2nccn2C)CC1 (stereo not drawn),2.5%
9,CC(O)CN1CCN(C(=O)c2ccc(N3CCCC3)nn2)CC1 (stereo not drawn),1.72%
10,Cc1csc(NC(=O)CN2CCc3c(nc(C4CC4)n3C)C2)n1,-1.68%
11,CCc1nc(CN(C)C2CCN(CCc3ccncc3)C2)no1 (stereo not drawn),-1.6%
12,Cc1nc(CNC(=O)N(CCCO)C2CCc3ccccc32)oc1C (stereo not drawn),-1.03%
13,Cc1nccc(CNC(=O)N(CCCO)C2CCc3ccccc32)n1 (stereo not drawn),30.5%
14,CCc1[nH]ncc1C(=O)N1CCCC(n2cc(C)cn2)C1 (stereo not drawn),-5.59%
15,CCc1ncc2c(n1)CN(CCCc1nc3ccccc3o1)CC2,0.768%
16,Cc1ncc(CNC(=O)N(CCCO)C2CCc3ccccc32)s1 (stereo not drawn),-5.3%
17,Cc1nc(C)n(C2CCCN(C(=O)c3c(C)nn4cccnc34)C2)n1 (stereo not drawn),20.7%
18,Cc1csc(C2CCCN(C(=O)c3c(C)nn4cccnc34)C2)n1 (stereo not drawn),-4.25%
19,Cc1ccc(NC2CCN(C(=O)c3cccc4c3ccn4C)CC2)nn1,-3.5%
20,Cc1nn2cccnc2c1C(=O)N1CCCC(n2cccn2)C1 (stereo not drawn),17.9%
21,O=C(c1cnn2cccnc12)N1CCCC(n2ccnc2)C1 (stereo not drawn),-3.58%

row,SMILES,cytotoxicity at 70.5 h
1,Cc1noc(C)c1CS(=O)(=O)CC(=O)N1CCc2sccc2C1,-3.02%
2,CC(NC(=O)NCCCn1cncn1)c1ccccc1F (stereo not drawn),-4.63%
3,Cc1csc(N2CCCN(CCC(=O)NC(N)=O)CC2)n1,-1.42%
4,c1ccc(Cc2noc(CN3CCOC(Cn4cccn4)C3)n2)cc1 (stereo not drawn),-3.64%
5,CCCc1nc(CN2CCOC(Cn3cccn3)C2)no1 (stereo not drawn),-1.75%
6,c1ccc2oc(CCCN3CCc4cncnc4C3)nc2c1,-2.93%
7,CC(C)c1nnc2n1CCN(C(=O)c1ccc(N(C)C)nn1)C2,2.93%
8,Cc1nn2cccnc2c1C(=O)N1CCCC(n2ccnc2C)C1 (stereo not drawn),-4.03%
9,CCc1[nH]ncc1C(=O)N1CCCC(n2ccnc2C)C1 (stereo not drawn),-7.72%
10,Cc1ncc2c(n1)CN(CCCc1ccccc1)CC2,0.152%
11,Cc1ccc(NC2CCN(C(=O)c3nccc4ccccc34)CC2)nn1,-4.93%
12,Cc1ccc(NC2CCN(C(=O)c3cccc4[nH]ncc34)CC2)nn1,-4.9%
13,Cn1c(CNCC2CCCN2c2cccnn2)nc2ccccc21 (stereo not drawn),-1.26%
14,Cc1ccc(NC2CCN(C(=O)c3cccnc3O)CC2)nn1,16.5%
15,c1ccc(Cn2ccnc2CNCC2CCCN2c2cccnn2)cc1 (stereo not drawn),4.91%
16,Cc1cnc(CN2CCCC2c2noc(C3CC3)n2)cn1 (stereo not drawn),-6.3%
17,Cc1nc(C2CCCN2Cc2nccn2CC(F)(F)F)no1 (stereo not drawn),-2.36%
18,CN(Cc1nnc(C2CC2)n1C)C1CCN(CCc2cnn(C)c2)C1 (stereo not drawn),39.7%
19,Cc1ccc(C(=O)N2CCN(Cc3ccccc3)CC2)n1C,21%
20,Cc1cnc(CN(C)C2CCN(CCCc3cnn(C)c3)C2)o1 (stereo not drawn),-8%
21,CCCc1nc(CN2CCCN(Cc3nccn3C)CC2)no1,-14.9%

row,SMILES,cytotoxicity at 70.5 h
1,O=C(Cc1ccc(F)c(Br)c1)N1CCN(CCO)CC1,-3.28%
2,Cc1nc(C)n(CC2CCCCN2Cc2cn3ccccc3n2)n1 (stereo not drawn),-19.3%
3,CCN(CC(=O)NC1(C)CCS(=O)(=O)C1)Cc1ccc(OC)c(F)c1 (stereo not drawn),-9.28%
4,Cc1cc(C(=O)N2CCN(Cc3ccsc3)CC2)n(C)n1,-14.3%
5,CCc1sc(C(=O)N2CCC(Nc3ccc(C)nn3)CC2)cc1C,-14.5%
6,N#Cc1cccc(OCCN2CCn3c(nnc3C3CC3)C2)c1,-11%
7,Cc1nc(C)n(CC2CCCN(Cc3cn4c(C)cccc4n3)C2)n1 (stereo not drawn),-11.6%
8,c1ccc2cc(OCCCN3CCn4c(nnc4C4CC4)C3)ccc2c1,-6.02%
9,CN(CC(=O)NC1(C)CCS(=O)(=O)C1)Cc1ccc(Br)cc1 (stereo not drawn),7.79%
10,COc1ccc(C(=O)NCCNC(=O)c2scnc2Cl)cc1,-2.78%
11,Cc1ccc(C(=O)N2CCN(Cc3ccc(C#N)cc3)CC2)n1C,-2.38%
12,O=C(NCCCn1ccnc1)N1CCCC1c1cccs1 (stereo not drawn),-2.86%
13,O=C(NCCc1cccnc1)N1CCCC1c1ccsc1 (stereo not drawn),-0.435%
14,Cc1noc(C)c1CN(C)C(=O)NC1CCN(c2ncccn2)CC1,35.3%
15,CN(C)c1cc(C(=O)N2CCN(c3cnccn3)CC2)ccn1,-13.9%
16,CCN(CC1CCOC1)C(=O)Nc1ccc(-n2cncn2)nc1 (stereo not drawn),-9.69%
17,CC(Nc1cccc(CN2CCOC2=O)c1)C(=O)NC(N)=O (stereo not drawn),32%
18,CC(Nc1cccc(CN2CCOC2=O)c1)C(=O)N1CCNC1=O (stereo not drawn),-6.02%
19,Cn1ccc(CN2CCC(NC(=O)NC3CCCCC3)CC2)cc1=O,-5.64%
20,CC(C)N(Cc1nc2c(cnn2C)c(=O)[nH]1)c1ccccc1,3.46%
21,CCOc1ccc(Cl)c(C(=O)NCc2ccc(C(=O)NC)cc2)n1,4.62%

row,SMILES,cytotoxicity at 70.5 h
1,CN(Cc1ccccc1)C(=O)c1nc(S(C)(=O)=O)n2ccccc12,31.2%
2,Cc1cc(C2CCCN2CCCS(=O)(=O)c2ccccc2)no1 (stereo not drawn),-4.85%
3,CC(C)CN(Cc1nc2c(cnn2C)c(=O)[nH]1)C(C)C,-2.34%
4,CCNC(=O)N1CCN(C(=O)c2cc(Cl)cc3cccnc23)CC1,-9.51%
5,O=C(c1ccc(C(F)(F)F)nc1)N1CCCC(n2cncn2)C1 (stereo not drawn),-1.03%
6,O=C(Nc1cccc(N2CCCC2)c1)C1CCCN1c1nccs1 (stereo not drawn),-2.18%
7,CN(C)c1cc2c(nn1)CCN(C(=O)Cc1noc3ccccc13)C2,9.27%
8,Cc1nc(C)n(CC2CCCN2Cc2cn3ccsc3n2)n1 (stereo not drawn),3.39%
9,O=C1C(NCc2nnc3n2CCCC3)CCCN1c1cccc(F)c1 (stereo not drawn),-3.38%
10,Cc1ccc(CCN2CCC(N(C)Cc3noc(C4CC4)n3)C2)cc1 (stereo not drawn),3.87%
11,CC(C)CC(CNC(=O)NCc1cc[nH]n1)N1CCOCC1 (stereo not drawn),39.4%
12,COc1cc(CNC(=O)C2CC(=O)N(C(C)C)C2)ccn1 (stereo not drawn),-16.6%
13,O=C(Nc1nccs1)NC1CCN(Cc2ccccc2)C1 (stereo not drawn),-8.23%
14,Cc1noc(C2CCN(C(=O)c3ccc(N(C)C)nc3)CC2)n1,-29.1%
15,Cc1ccccc1-c1cc(C(=O)NCCN2CCCS2(=O)=O)[nH]n1,-15.5%
16,CC(C)c1cc(C(=O)NCCN2CCCS2(=O)=O)n[nH]1,-19.6%
17,Cc1noc(C2CCN(C(=O)CN(C)c3ccc(Cl)cn3)CC2)n1,-20.9%
18,CN1CCN(c2cc(CNC(=O)c3ccc(=O)n(C)c3)ccn2)CC1,-15.6%
19,COc1cc(C)nc(N2CCN(C(=O)CN(C)C3CC3)CC2)n1,-4.51%
20,COc1cc(C)nc(N2CCN(C(=O)COCC(F)(F)F)CC2)n1,-15.4%

# — ChEMBL document CHEMBL3507680, “University of Dundee, Gates Library screen for HepG2 cell viability”
